These compounds were tested against human PDE10A (Homo sapiens (Human), UniProt Q9Y233) (assay: human PDE10A full length Scintillation Proximity Assay (SPA)). Conditions: 50 nM cGMP and 50 nM [3H]-cGMP, 20 minutes at room temperature; read-out: PDE10A inhibition IC50.
Chain of human PDE10A (Q9Y233 other isoform, or with tags, fused parts or gaps): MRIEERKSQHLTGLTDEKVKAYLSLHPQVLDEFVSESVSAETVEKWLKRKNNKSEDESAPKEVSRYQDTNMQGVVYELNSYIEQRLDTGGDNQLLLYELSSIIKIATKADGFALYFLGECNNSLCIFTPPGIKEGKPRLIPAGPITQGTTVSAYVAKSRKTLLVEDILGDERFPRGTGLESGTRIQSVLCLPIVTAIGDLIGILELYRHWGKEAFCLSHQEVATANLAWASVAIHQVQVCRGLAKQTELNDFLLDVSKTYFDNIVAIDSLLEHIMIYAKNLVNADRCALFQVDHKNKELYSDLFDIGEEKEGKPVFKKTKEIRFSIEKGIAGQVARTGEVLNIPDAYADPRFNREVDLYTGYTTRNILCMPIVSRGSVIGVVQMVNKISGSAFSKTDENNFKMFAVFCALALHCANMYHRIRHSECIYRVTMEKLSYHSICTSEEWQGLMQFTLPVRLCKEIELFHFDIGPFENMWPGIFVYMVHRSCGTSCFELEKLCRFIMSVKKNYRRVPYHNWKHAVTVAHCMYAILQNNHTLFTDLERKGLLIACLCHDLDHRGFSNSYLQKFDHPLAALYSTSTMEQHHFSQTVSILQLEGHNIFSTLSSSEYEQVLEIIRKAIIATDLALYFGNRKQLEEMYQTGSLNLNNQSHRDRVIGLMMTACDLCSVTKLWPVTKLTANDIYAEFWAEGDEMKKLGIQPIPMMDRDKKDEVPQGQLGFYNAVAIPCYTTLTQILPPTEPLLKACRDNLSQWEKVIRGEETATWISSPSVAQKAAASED
Type: biochemical
Outline: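 Radiometric SPA read-out: after 20 min at room temperature with [^3H]-cGMP/cGMP substrate, zinc sulphate (18 mM) bead stop reagent added and counts read after 1 h. Non-specific signal defined without enzyme; full-length protein used.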
Work on CN(CCO)C(=O)c1nn(C)cc1NC(=O)c1nc(C2CC2)ccc1Nc1cncnc1 [Example 40, 6-Cyclopropyl-3-(pyrimidin-5-ylamino)-pyridine-2-carboxylic acid {3-[(2-hydroxy-ethyl)-methyl-carbamoyl]-1-methyl-1H-pyrazol-4-yl}-amide] yielded an IC50 of 7.5 nM. Cn1ncc(NC(=O)c2nc(C3CC3)cnc2Nc2cncnc2)c1C(=O)NCC(C)(C)CO [Example 142, 6-Cyclopropyl-3-(pyrimidin-5-ylamino)-pyrazine-2-carboxylic acid [5-(3-hydroxy-2,2-dimethyl-propylcarbamoyl)-1-methyl-1H-pyrazol-4-yl]-amide] gave an IC50 of 1.1 nM. CNC(=O)c1nn(C)cc1NC(=O)c1nc(C2CCCCC2)ncc1Nc1cncnc1 [Example 84, 2-Cyclohexyl-5-(pyrimidin-5-ylamino)-pyrimidine-4-carboxylic acid (1-methyl-3-methylcarbamoyl-1H-pyrazol-4-yl)-amide] showed an IC50 of 1.9 nM. CCc1ccc(NC(=O)c2nc(C3CC3)cnc2Nc2cncnc2)c(C(=O)NCC(C)(C)O)n1 [Example 181, 6-Cyclopropyl-3-(pyrimidin-5-ylamino)-pyrazine-2-carboxylic acid [6-ethyl-2-(2-hydroxy-2-methyl-propylcarbamoyl)-pyridin-3-yl]-amide] showed an IC50 of 0.4 nM. With Cn1cc(NC(=O)c2nc(C3CC3)ccc2Nc2cncnc2)c(C(=O)N2CCCC2CO)n1 (centres unmarked) [Example 49, 6-Cyclopropyl-3-(pyrimidin-5-ylamino)-pyridine-2-carboxylic acid [3-(2-hydroxymethyl-pyrrolidine-1-carbonyl)-1-methyl-1H-pyrazol-4-yl]-amide] the IC50 was 3.9 nM. For O=C(NCCO)c1ncccc1NC(=O)c1nc(C2CC2)cnc1Nc1cncnc1 [Example 271, 6-Cyclopropyl-3-(pyrimidin-5-ylamino)-pyrazine-2-carboxylic acid [2-(2-hydroxy-ethylcarbamoyl)-pyridin-3-yl]-amide], the IC50 was 0.4 nM. For O=C(NC1COC1)c1ncccc1NC(=O)c1nc(C2CC2)cnc1Nc1cncnc1 [Example 277, 6-Cyclopropyl-3-(pyrimidin-5-ylamino)-pyrazine-2-carboxylic acid [2-(oxetan-3-ylcarbamoyl)-pyridin-3-yl]-amide], the IC50 was 2.7 nM. For CC(C)(O)CNC(=O)c1cnccc1NC(=O)c1nc(C2CC2)cnc1Nc1cncnc1 [Example 120, 6-Cyclopropyl-3-(pyrimidin-5-ylamino)-pyrazine-2-carboxylic acid [3-(2-hydroxy-2-methyl-propylcarbamoyl)-pyridin-4-yl]-amide], the IC50 was 0.4 nM. With CNC(=O)c1c(NC(=O)c2nc(N3CCCC3)cnc2Nc2cncnc2)cnn1C [Example 289, 3-(Pyrimidin-5-ylamino)-6-pyrrolidin-1-yl-pyrazine-2-carboxylic acid (1-methyl-5-methylcarbamoyl-1H-pyrazol-4-yl)-amide] the IC50 was 24 nM. For CN(C(=O)c1c(NC(=O)c2nc(C3CC3)cnc2Nc2cncnc2)cnn1C)C1CC1 [Example 238, 6-Cyclopropyl-3-(pyrimidin-5-ylamino)-pyrazine-2-carboxylic acid [5-(cyclopropyl-methyl-carbamoyl)-1-methyl-1H-pyrazol-4-yl]-amide], the IC50 was 52.3 nM. Compound O=C(NC1CCOC1)c1ccncc1NC(=O)c1nc(C2CC2)cnc1Nc1cncnc1 (centres unmarked) [Example 100, 6-Cyclopropyl-3-(pyrimidin-5-ylamino)-pyrazine-2-carboxylic acid [4-(tetrahydro-furan-3-ylcarbamoyl)-pyridin-3-yl]-amide] has an IC50 of 2.5 nM. CNC(=O)c1c(NC(=O)c2nc(Cl)ccc2Nc2cncnc2)cnn1C [Example 166, 6-Chloro-3-(pyrimidin-5-ylamino)-pyridine-2-carboxylic acid (1-methyl-5-methylcarbamoyl-1H-pyrazol-4-yl)-amide] gave an IC50 of 335 nM. In the case of Cn1cc(NC(=O)c2nc(C3CC3)ccc2Nc2cncnc2)c(C(=O)NC2CC2)n1 [Example 31, 6-Cyclopropyl-3-(pyrimidin-5-ylamino)-pyridine-2-carboxylic acid (3-cyclopropylcarbamoyl-1-methyl-1H-pyrazol-4-yl)-amide], the IC50 is reported as 3.1 nM. For CNC(=O)c1c(NC(=O)c2nc(C3CC3)ccc2Nc2cncnc2)cnn1C [Example 148, 6-Cyclopropyl-3-(pyrimidin-5-ylamino)-pyridine-2-carboxylic acid (1-methyl-5-methylcarbamoyl-1H-pyrazol-4-yl)-amide], the IC50 was 14.4 nM. Compound CNC(=O)c1c(NC(=O)c2nc(N3CCN(C)CC3)cnc2Nc2cncnc2)cnn1C [Example 333, 4-Methyl-5′-(pyrimidin-5-ylamino)-3,4,5,6-tetrahydro-2H-[1,2]bipyrazinyl-6′-carboxylic acid (1-methyl-5-methylcarbamoyl-1H-pyrazol-4-yl)-amide] has an IC50 of 691 nM. CN(CC(C)(C)O)C(=O)c1ncccc1NC(=O)c1nc(C2CC2)cnc1Nc1cncnc1 [Example 123, 6-Cyclopropyl-3-(pyrimidin-5-ylamino)-pyrazine-2-carboxylic acid {2-[(2-hydroxy-2-methyl-propyl)-methyl-carbamoyl]-pyridin-3-yl}-amide] was tested, and the IC50 was 9.6 nM. Cn1cc(NC(=O)c2nc(C3CC3)ccc2Nc2cncnc2)c(C(=O)N2CCOCC2)n1 [Example 14, 6-Cyclopropyl-3-(pyrimidin-5-ylamino)-pyridine-2-carboxylic acid [1-methyl-3-(morpholine-4-carbonyl)-1H-pyrazol-4-yl]-amide] gave an IC50 of 11.4 nM. CCN(CCO)C(=O)c1ncccc1NC(=O)c1nc(C2CC2)cnc1Nc1cncnc1 [Example 270, 6-Cyclopropyl-3-(pyrimidin-5-ylamino)-pyrazine-2-carboxylic acid {2-[ethyl-(2-hydroxy-ethyl)-carbamoyl]-pyridin-3-yl}-amide] gave an IC50 of 53.3 nM. CNC(=O)c1ccccc1NC(=O)c1nc(C2CC2)ccc1Nc1cncnc1 [Example 29, 6-Cyclopropyl-3-(pyrimidin-5-ylamino)-pyridine-2-carboxylic acid (2-methylcarbamoyl-phenyl)-amide] showed an IC50 of 1.3 nM. CNC(=O)c1c(NC(=O)c2nc(OCC(F)(F)F)cnc2Nc2cncnc2)cnn1C [Example 339, 3-(Pyrimidin-5-ylamino)-6-(2,2,2-trifluoro-ethoxy)-pyrazine-2-carboxylic acid (1-methyl-5-methylcarbamoyl-1H-pyrazol-4-yl)-amide] gave an IC50 of 49.3 nM. Work on CC(C)(O)CNC(=O)c1ccc(F)c(F)c1NC(=O)c1nc(C2CC2)cnc1Nc1cncnc1 [Example 326, 6-Cyclopropyl-3-(pyrimidin-5-ylamino)-pyrazine-2-carboxylic acid [2,3-difluoro-6-(2-hydroxy-2-methyl-propylcarbamoyl)-phenyl]-amide] yielded an IC50 of 2.7 nM. CN(C)C(=O)c1c(NC(=O)c2nc(C3CC3)cnc2Nc2cncnc2)ccc(F)c1F [Example 316, 6-Cyclopropyl-3-(pyrimidin-5-ylamino)-pyrazine-2-carboxylic acid (2-dimethylcarbamoyl-3,4-difluoro-phenyl)-amide] was tested, and the IC50 was 24.1 nM. For O=C(Nc1cccnc1C(=O)N1CCCCC1)c1nc(C2CC2)cnc1Nc1cncnc1 [Example 195, 6-Cyclopropyl-3-(pyrimidin-5-ylamino)-pyrazine-2-carboxylic acid [2-(piperidine-1-carbonyl)-pyridin-3-yl]-amide], the IC50 was 16.4 nM. CNC(=O)c1nn(C)cc1NC(=O)c1nc(C(C)(C)C)ncc1Nc1cncnc1 [Example 77, 2-tert-Butyl-5-(pyrimidin-5-ylamino)-pyrimidine-4-carboxylic acid (1-methyl-3-methylcarbamoyl-1H-pyrazol-4-yl)-amide] showed an IC50 of 3.4 nM. Compound CNC(=O)c1c(NC(=O)c2nc(C(C)C)ncc2Nc2ccc(F)cc2)cnn1C [Example 191, 5-(4-Fluoro-phenylamino)-2-isopropyl-pyrimidine-4-carboxylic acid (1-methyl-5-methylcarbamoyl-1H-pyrazol-4-yl)-amide] has an IC50 of 470 nM. CNC(=O)c1c(NC(=O)c2nc(C(C)C)cnc2Nc2cncnc2)cnn1C [Example 131, 6-Isopropyl-3-(pyrimidin-5-ylamino)-pyrazine-2-carboxylic acid (1-methyl-5-methylcarbamoyl-1H-pyrazol-4-yl)-amide] gave an IC50 of 1.4 nM. With CCNC(=O)c1c(NC(=O)c2nc(C3CC3)cnc2Nc2cncnc2)cnn1CC [Example 201, 6-Cyclopropyl-3-(pyrimidin-5-ylamino)-pyrazine-2-carboxylic acid (1-ethyl-5-ethylcarbamoyl-1H-pyrazol-4-yl)-amide] the IC50 was 11.5 nM. Work on CNC(=O)c1c(NC(=O)c2nc(C3CC3)cnc2Nc2cncnc2)cnn1CC1CCOC1 (centres unmarked) [Example 286, 6-Cyclopropyl-3-(pyrimidin-5-ylamino)-pyrazine-2-carboxylic acid [5-methylcarbamoyl-1-(tetrahydro-furan-3-ylmethyl)-1H-pyrazol-4-yl]-amide] yielded an IC50 of 43.2 nM. CNC(=O)c1c(NC(=O)c2nc(C3CCC3)ncc2Nc2cncnc2)cnn1C [Example 193, 2-Cyclobutyl-5-(pyrimidin-5-ylamino)-pyrimidine-4-carboxylic acid (1-methyl-5-methylcarbamoyl-1H-pyrazol-4-yl)-amide] gave an IC50 of 11.7 nM. Compound O=C(Nc1c(C(=O)N2CCC2)ccc(F)c1F)c1nc(C2CC2)cnc1Nc1cncnc1 [Example 320, 6-Cyclopropyl-3-(pyrimidin-5-ylamino)-pyrazine-2-carboxylic acid [6-(azetidine-1-carbonyl)-2,3-difluoro-phenyl]-amide] has an IC50 of 86.3 nM. Work on CNC(=O)c1nn(CC2CC2)cc1NC(=O)c1nc(C2CC2)ccc1Nc1cncnc1 [Example 12, 6-Cyclopropyl-3-(pyrimidin-5-ylamino)-pyridine-2-carboxylic acid (1-cyclopropylmethyl-3-methylcarbamoyl-1H-pyrazol-4-yl)-amide] yielded an IC50 of 495 nM. For O=C(NC1CC1)c1ccncc1NC(=O)c1nc(C2CC2)ccc1Nc1cncnc1 [Example 57, 6-Cyclopropyl-3-(pyrimidin-5-ylamino)-pyridine-2-carboxylic acid (4-cyclopropylcarbamoyl-pyridin-3-yl)-amide], the IC50 was 2.1 nM.
